The text below walks through data of US9358281B2, “Methods, agents and peptides for inducing an innate immune response in HIV vaccination” (New York University, priority 2009, dated 2016).

The test system of the test is monocyte-derived dendritic cells (MDDC). The class given is cell-based, human. The following applies: added during the first 24 hours.

Turning to `Cc1nnc(C(=O)NC(C)(C)c2nc(C(=O)NCc3ccc(F)cc3)c(O)c(=O)n2C)o1` [RAL, Raltegravir], the “effect on transduction efficiency” value is recorded as “inhibited transduction efficiency”. Consider `Cc1cn([C@H]2C[C@H](N=[N+]=[N-])[C@@H](CO)O2)c(=O)[nH]c1=O` [AZT, Zidovudine], for which the “effect on transduction efficiency” value is given as “inhibited transduction efficiency”.
